Target: T1, acetylcholine-binding protein (AcAChBP) (Aplysia californica, UniProt Q8WSF8)
T1 construct: recombinant AcAChBP with a C-terminal Tobacco etch virus cleavage site and His6 tag; homopentamer
T1 sequence (Q8WSF8 20-236): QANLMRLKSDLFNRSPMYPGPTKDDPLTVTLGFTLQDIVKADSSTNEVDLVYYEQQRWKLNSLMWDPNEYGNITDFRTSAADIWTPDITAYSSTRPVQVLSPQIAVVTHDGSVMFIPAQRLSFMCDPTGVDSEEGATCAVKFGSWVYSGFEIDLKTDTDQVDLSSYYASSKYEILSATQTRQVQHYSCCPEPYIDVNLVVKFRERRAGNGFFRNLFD
Test: ITC and […] Å crystal structure

O=c1c(CCCO)ccc2n1C[C@@H]1CNC[C@H]2C1 [compound 4, (1R,5S)-9-(3-hydroxypropyl)-1,2,3,4,5,6-hexahydro-1,5-methano-8H-pyrido[1,2a][1,5]diazocin-8-one]
Kd: 53.3 µM

Source: article PMC7010356, “The thermodynamic profile and molecular interactions of a C(9)-cytisine derivative-binding acetylcholine-binding protein from Aplysia californica” (Acta Crystallographica. Section F, Structural Biology …, 2020)
